This passage reports IC50 results from patent US11446287B2, “Compounds and methods for EP300 or CBP modulation and indications therefor” (Opna Immuno-Oncology SA, priority 2019, dated 2022).

The target of the experiment is T1, Recombinant human EP300 containing the bromodomain (EP300-BD (1040-1161)) (Homo sapiens, UniProt Q09472).
T1 construct: Recombinant human EP300 bromodomain (EP300-BD (1040-1161)); made in house; host or cells: E. coli BL21-CodonPlus (DE3), modified pET vector
T1 sequence (Q09472 1040-1161): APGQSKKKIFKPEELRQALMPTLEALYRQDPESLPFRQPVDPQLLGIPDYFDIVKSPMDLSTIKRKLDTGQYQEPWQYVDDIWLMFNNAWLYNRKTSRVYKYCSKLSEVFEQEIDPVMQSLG
The experiment can be described thus: EP300 Alphascreen binding assay. In short, it runs like this:
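Displacement of a biotinylated acetyl-K56 histone H3 peptide from the N-His bromodomain construct (1040-1161) measured by AlphaScreen proximity, beads at 7.5 μg/ml final, read 60 min after addition. Protein, peptide and compound first incubated 1 h at room temperature, pH 7.5 HEPES buffer; IC50 by four-parameter logistic fit.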

Molecules are shown by their SMILES.

Take `CCOc1cc(C(=O)O)cc(OCC)c1-n1cc(-c2cnn(CC3CC3)c2)c2ncc(-c3c(C)noc3C)cc21` [P-0264, 4-(3-(1-(cyclopropylmethyl)-1H-pyrazol-4-yl)-6-(3,5-dimethylisoxazol-4-yl)-1H-pyrrolo[3,2-b]pyridin-1-yl)-3,5-diethoxybenzoic acid]: the IC50 (usually the concentration that inhibits the measured activity by half) was 0.1 to 1000 nM. Then `CCOc1cc(C(=O)O)cc(OCC)c1-n1cc(-c2cnn(C3CC3)c2)c2ncc(-c3c(C)noc3C)cc21` [P-0265, 4-(3-(1-cyclopropyl-1H-pyrazol-4-yl)-6-(3,5-dimethylisoxazol-4-yl)-1H-pyrrolo[3,2-b]pyridin-1-yl)-3,5-diethoxybenzoic acid], with 0.1 to 1000 nM. `CCOc1cc(C(=O)O)cc(OCC)c1-n1cc(-c2cnn(CCC#N)c2)c2ncc(-c3c(C)noc3C)cc21` [P-0266, 4-(3-(1-(2-cyanoethyl)-1H-pyrazol-4-yl)-6-(3,5-dimethylisoxazol-4-yl)-1H-pyrrolo[3,2-b]pyridin-1-yl)-3,5-diethoxybenzoic acid]: the IC50 lay within 0.1 to 1000 nM. As for `CCOc1cc(C(=O)O)cc(OCC)c1-n1cc(-c2cnn(CC(=O)N(C)C)c2)c2ncc(-c3c(C)noc3C)cc21` [P-0267, 4-(3-(1-(2-(dimethylamino)-2-oxoethyl)-1H-pyrazol-4-yl)-6-(3,5-dimethylisoxazol-4-yl)-1H-pyrrolo[3,2-b]pyridin-1-yl)-3,5-diethoxybenzoic acid], the IC50 is 0.1 to 1000 nM. Regarding `Cc1noc(C)c1-c1cnc2c(c1)c(-c1cc(C(=O)O)ccc1OC(F)(F)F)cn2-c1ccc(F)cc1F` [P-0268, 3-(1-(2,4-difluorophenyl)-5-(3,5-dimethylisoxazol-4-yl)-1H-pyrrolo[2,3-b]pyridin-3-yl)-4-(trifluoromethoxy)benzoic acid], the IC50 lay in the range of 0.1 to 1000 nM. In the case of `Cc1noc(C)c1-c1cnc2c(-c3ccc(F)cc3F)cn(-c3c(OC(C)C)cc(C(=O)O)cc3OC(C)C)c2c1` [P-0269, 4-(3-(2,4-difluorophenyl)-6-(3,5-dimethylisoxazol-4-yl)-1H-pyrrolo[3,2-b]pyridin-1-yl)-3,5-diisopropoxybenzoic acid], the IC50 lay in the range of 0.1 to 1000 nM.

In the case of `CCOc1cc(C(=O)O)cc(OCC)c1-n1cc(CC2CCC2)c2ncc(-n3c(C)nnc3C)cc21` [P-0270, 4-(3-(cyclobutylmethyl)-6-(3,5-dimethyl-4H-1,2,4-triazol-4-yl)-1H-pyrrolo[3,2-b]pyridin-1-yl)-3,5-diethoxybenzoic acid], the IC50 lay in the range of 1000 to 8000 nM. Take `CCOc1cc(C(=O)O)cc(OCC)c1-n1cc(C2CCC(F)(F)CC2)c2ncc(-c3c(C)noc3C)cc21` [P-0271, 4-(3-(4,4-difluorocyclohexyl)-6-(3,5-dimethylisoxazol-4-yl)-1H-pyrrolo[3,2-b]pyridin-1-yl)-3,5-diethoxybenzoic acid]: the IC50 lay in the range of 0.1 to 1000 nM. As for `Cc1noc(C)c1-c1cnc2c(c1)c(-c1cnn(CC(=O)O)c1)cn2-c1ncccc1C#CC1CC1` [P-0272, 2-(4-(1-(3-(cyclopropylethynyl)pyridin-2-yl)-5-(3,5-dimethylisoxazol-4-yl)-1H-pyrrolo[2,3-b]pyridin-3-yl)-1H-pyrazol-1-yl)acetic acid], the IC50 was 0.1 to 1000 nM. Under `Cc1noc(C)c1-c1cnc2c(c1)c(-c1ccc(C(=O)O)cc1OC(F)F)cn2-c1ccccc1` [P-0273, 3-(difluoromethoxy)-4-(5-(3,5-dimethylisoxazol-4-yl)-1-phenyl-1H-pyrrolo[2,3-b]pyridin-3-yl)benzoic acid] stands 0.1 to 1000 nM; under `Cc1noc(C)c1-c1cnc2c(-c3ccccc3)cn(-c3cc(C(=O)O)ccc3OC(F)(F)F)c2c1` [P-0274, 3-(6-(3,5-dimethylisoxazol-4-yl)-3-phenyl-1H-pyrrolo[3,2-b]pyridin-1-yl)-4-(trifluoromethoxy)benzoic acid], 0.1 to 1000 nM. Then `Cc1noc(C)c1-c1cnc2c(c1)c(-c1ccc(C(=O)O)cc1OC(C)C)cn2-c1ccccc1` [P-0275, 4-(5-(3,5-dimethylisoxazol-4-yl)-1-phenyl-1H-pyrrolo[2,3-b]pyridin-3-yl)-3-isopropoxybenzoic acid], with 0.1 to 1000 nM.
